From patent publication US5801201A, “1-phenyl-2-dimenthylaminomethyl-cyclohexan-1-ol compounds as pharmaceutical active ingredients” (priority 1995, dated 1998)
Where a name gives a salt, the structure may show the parent alone.

What follows are compounds tested on mice (assay: Analgesia, thermal radiation (tail flick) test on mice, intravenous). Conditions: Mus musculus, 20 min, determined at effective maximum 20 minutes after administration, effect = latency ≥150% of pre-test average.
Type: in vivo, mice (male NMRI)
Text: Testing for analgesia using the tail flick test on mice
The analgesic effectiveness of the compounds according to the invention was investigated in the thermal radiation (tail flick) test on mice using the method of D'Amour and Smith (J. Pharm. Exp. Ther. 72, 74-79 (1941). Male NMRI mice with a weight between 20 and 24 g were used for this purpose. The animals were placed individually in special test cages and the bases of their tails were exposed to the focused thermal radiation from an electric lamp (Rhema Analgesiemeter Type 3010). The lamp intensity was adjusted so that the time from switching on the lamp until the sudden twitching away of the tail (latency of pain) was 3-5 seconds for untreated animals. Before the administration of a compound according to the invention, the animals were pre-tested twice within five minutes and the average value of these measurements was calculated as the pre-test average. The pain measurement was made 20, 40 and 60 minutes after intravenous administration. When the latency of pain increased, the maximum time of exposure was restricted to 12 seconds and an increase in the latent period to ≥150% of the pre-test average value was assessed as an analgesic effect. In order to determine the dosage-dependency, the respective compound according to the invention was applied in doses increasing logarithmically by a factor of 3-5, which included the threshold and the maximum effective dose each time. The ED50 values were determined from the number of analgesic animals by the method of Litchfield and Wilcoxon (J. Pharm. Exp. Ther. 96, […], (1949)). Determination of the ED50 was made at the effective maximum 20 minutes after intravenous administration of the substance.
`COc1cccc([C@@]2(O)CC[C@H](Cc3ccccc3)C[C@@H]2CN(C)C)c1.Cl` (racemic) [(35), (1RS,2RS,4SR)-4-benzyl-2-dimethylaminomethyl-1-(3-methoxy-phenyl)-cyclohexanol hydrochloride] gave an ED50 of 2.43 mg/kg.
For `CN(C)C[C@H]1C[C@@H](OCC2CCCC2)CC[C@]1(O)c1cccc(OC2CCCC2)c1.Cl` (racemic) [(60), (1RS,2RS,4SR)-4-cyclopentylmethoxy-1-(3-cyclopentyl-oxy-phenyl)-2-dimethylaminomethyl-cyclohexanol hydrochloride], the ED50 was 2.46 mg/kg.
Compound `C=C(C)CO[C@H]1CC[C@](O)(c2cccc(OC)c2)[C@@H](CN(C)C)C1` (relative stereo) [(14), (1RS,2RS,4SR)-2-dimethylaminomethyl-1-(3-methoxy-phenyl)-4-(2-methyl-2-allyloxy)-cyclohexanol hydrochloride] has an ED50 of 0.379 mg/kg.
`CN(C)C[C@H]1C[C@@H](CCC2CCCC2)CC[C@]1(O)c1cccc(OC2CCCC2)c1` [(71), hydrochloride] was tested, and the ED50 was 3.35 mg/kg.
`CN(C)C[C@H]1C[C@@H](OCc2ccccc2)CC[C@]1(O)c1cccc(O)c1.Cl` [(85), (+)-(1R, 2R, 4S)-3-(4-benzyloxy-2-dimethylaminomethyl-1-hydroxycyclohexyl)-phenol hydrochloride] showed an ED50 of 0.068 mg/kg.
`COc1cccc([C@@]2(O)CC[C@H](OCc3ccc(Cl)cc3)C[C@@H]2CN(C)C)c1.Cl` [(93), (+)-(1R, 2R, 4S)-4-(4-chloro-benzyloxy)-2-dimethylaminomethyl-1-(3-methoxyphenyl)-cyclohexanol hydrochloride] showed an ED50 of 0.37 mg/kg.
`COc1cccc([C@@]2(O)CC[C@H](OCc3ccccc3)C[C@@H]2CN(C)C)c1.Cl` [[(+)1], (1R,2R,4S)-4-benzyloxy-2-dimethylaminomethyl-1-(3-methoxy-phenyl)-cyclohexanol hydrochloride] was tested, and the ED50 was 0.049 mg/kg.
For `CSc1cccc([C@@]2(O)CC[C@H](OCc3ccccc3)C[C@@H]2CN(C)C)c1` [[(+)6], (1R,2R,4S)-4-benzyloxy-2-[(dimethylamino)methyl]-1-(3-methyl-sulphanyl-phenyl)-cyclohexanol hydrochloride], the ED50 was 0.19 mg/kg.
For `COc1cccc([C@]2(O)CC[C@@H](OCc3ccccc3)C[C@H]2CN(C)C)c1.Cl` [[(-)1], (1S,2S,4R)-4-benzyloxy-2-dimethylaminomethyl-1-(3-methoxy-phenyl)-cyclohexanol hydrochloride], the ED50 was 0.822 mg/kg.
